# Laboratory results taken from ChEMBL document CHEMBL3885881, “DrugMatrix”.
# Species on record: Rattus norvegicus
# Assay: DrugMatrix - Regimen: Daily Repeat
# Assay type: toxicity, organism-based, Sprague-Dawley
# Parameters: regimen Daily Repeat, gender Male, age 6-8 weeks
# Conditions: in vivo, po, route oral GAVAGE, […]; for ABSOLUTE BASOPHIL / ABSOLUTE EOSINOPHIL / ABSOLUTE LYMPHOCYTE / ABSOLUTE MONOCYTE / ABSOLUTE SEGMENTED NEUTROPHIL / BASOPHIL / EOSINOPHIL / ERYTHROCYTE COUNT / HEMATOCRIT / HEMOGLOBIN / LEUKOCYTE COUNT / LYMPHOCYTE / MEAN CORPUSCULAR HEMOGLOBIN / MEAN CORPUSCULAR HEMOGLOBIN CONCENTRATION / MEAN CORPUSCULAR VOLUME / MONOCYTE / NEUTROPHIL / NUCLEATED RED BLOOD CELLS / PLATELET COUNT: tissue Blood; for ALANINE AMINOTRANSFERASE / ALBUMIN / ALKALINE PHOSPHATASE / ASPARTATE AMINOTRANSFERASE / BLOOD UREA NITROGEN / CARBON DIOXIDE / CHLORIDE / CHOLESTEROL / CREATINE PHOSPHOKINASE / CREATININE / GLUCOSE / LACTATE DEHYDROGENASE / LIPASE / PHOSPHORUS / POTASSIUM / SODIUM / TOTAL BILIRUBIN / TOTAL PROTEIN / URIC ACID: tissue Plasma
# [1] = 100 mg/kg, 120 h, dose level Low, time 5 day
# [2] = 972 mg/kg, 72 h, dose level High, time 3 day
# [3] = 972 mg/kg, 120 h, dose level High, time 5 day
structure (smiles),measurement,setting,value
CC(=O)Nc1ccc(O)cc1 [ACETAMINOPHEN],ABSOLUTE BASOPHIL,[1],0 CELLS/uL
same,ABSOLUTE EOSINOPHIL,[1],65 CELLS/uL
same,ABSOLUTE LYMPHOCYTE,[1],8879.67 CELLS/uL
same,ABSOLUTE MONOCYTE,[1],40.33 CELLS/uL
same,ABSOLUTE SEGMENTED NEUTROPHIL,[1],548.33 CELLS/uL
same,BASOPHIL,[1],0%
same,EOSINOPHIL,[1],0.67%
same,ERYTHROCYTE COUNT,[1],5.47 x10E6/uL
same,HEMATOCRIT,[1],34.53%
same,HEMOGLOBIN,[1],13.27 G/DL
same,LEUKOCYTE COUNT,[1],9.53 x10E3/uL
same,LYMPHOCYTE,[1],93.67%
same,MEAN CORPUSCULAR HEMOGLOBIN,[1],24.27 pg
same,MEAN CORPUSCULAR HEMOGLOBIN CONCENTRATION,[1],38.43 G/DL
same,MEAN CORPUSCULAR VOLUME,[1],63.13 fL
same,MONOCYTE,[1],0.33%
same,NEUTROPHIL,[1],5.33%
same,NUCLEATED RED BLOOD CELLS,[1],0 /100WBC
same,PLATELET COUNT,[1],1237.33 x10E3/uL
same,ALANINE AMINOTRANSFERASE,[1],58.33 u/L
same,ALBUMIN,[1],4.3 G/DL
same,ALKALINE PHOSPHATASE,[1],341.67 u/L
same,ASPARTATE AMINOTRANSFERASE,[1],84 u/L
same,BLOOD UREA NITROGEN,[1],14 mg/dL
same,CARBON DIOXIDE,[1],27.33 mmol/L
same,CHLORIDE,[1],98.33 MEQ/L
same,CHOLESTEROL,[1],81.33 mg/dL
same,CREATINE PHOSPHOKINASE,[1],273 u/L
same,CREATININE,[1],0.18 mg/dL
same,GLUCOSE,[1],158.67 mg/dL
same,LACTATE DEHYDROGENASE,[1],79.67 u/L
same,LIPASE,[1],10 u/L
same,PHOSPHORUS,[1],9.17 mg/dL
same,POTASSIUM,[1],5.75 MEQ/L
same,SODIUM,[1],143.87 MEQ/L
same,TOTAL BILIRUBIN,[1],0.23 mg/dL
same,TOTAL PROTEIN,[1],6.27 G/DL
same,URIC ACID,[1],0.77 mg/dL
same,ABSOLUTE BASOPHIL,[2],0 CELLS/uL
same,ABSOLUTE EOSINOPHIL,[2],0 CELLS/uL
same,ABSOLUTE LYMPHOCYTE,[2],8609 CELLS/uL
same,ABSOLUTE MONOCYTE,[2],158.2 CELLS/uL
same,ABSOLUTE SEGMENTED NEUTROPHIL,[2],1212.8 CELLS/uL
same,BASOPHIL,[2],0%
same,EOSINOPHIL,[2],0%
same,ERYTHROCYTE COUNT,[2],5.94 x10E6/uL
same,HEMATOCRIT,[2],36.4%
same,HEMOGLOBIN,[2],13.62 G/DL
same,LEUKOCYTE COUNT,[2],9.98 x10E3/uL
same,LYMPHOCYTE,[2],85.6%
same,MEAN CORPUSCULAR HEMOGLOBIN,[2],22.9 pg
same,MEAN CORPUSCULAR HEMOGLOBIN CONCENTRATION,[2],37.44 G/DL
same,MEAN CORPUSCULAR VOLUME,[2],61.28 fL
same,MONOCYTE,[2],2%
same,NEUTROPHIL,[2],12.4%
same,NUCLEATED RED BLOOD CELLS,[2],0 /100WBC
same,PLATELET COUNT,[2],1006.4 x10E3/uL
same,ALANINE AMINOTRANSFERASE,[2],85 u/L
same,ALBUMIN,[2],4.4 G/DL
same,ALKALINE PHOSPHATASE,[2],536.6 u/L
same,ASPARTATE AMINOTRANSFERASE,[2],123.8 u/L
same,BLOOD UREA NITROGEN,[2],14 mg/dL
same,CARBON DIOXIDE,[2],31.2 mmol/L
same,CHLORIDE,[2],99.67 MEQ/L
same,CHOLESTEROL,[2],76.2 mg/dL
same,CREATINE PHOSPHOKINASE,[2],298.8 u/L
same,CREATININE,[2],0.19 mg/dL
same,GLUCOSE,[2],161 mg/dL
same,LACTATE DEHYDROGENASE,[2],128 u/L
same,LIPASE,[2],10.8 u/L
same,PHOSPHORUS,[2],10.82 mg/dL
same,POTASSIUM,[2],5.81 MEQ/L
same,SODIUM,[2],143.6 MEQ/L
same,TOTAL BILIRUBIN,[2],0.14 mg/dL
same,TOTAL PROTEIN,[2],6.04 G/DL
same,URIC ACID,[2],0.68 mg/dL
same,ABSOLUTE BASOPHIL,[3],0 CELLS/uL
same,ABSOLUTE EOSINOPHIL,[3],17.8 CELLS/uL
same,ABSOLUTE LYMPHOCYTE,[3],10212.2 CELLS/uL
same,ABSOLUTE MONOCYTE,[3],135.4 CELLS/uL
same,ABSOLUTE SEGMENTED NEUTROPHIL,[3],1674.6 CELLS/uL
same,BASOPHIL,[3],0%
same,EOSINOPHIL,[3],0.2%
same,ERYTHROCYTE COUNT,[3],6.63 x10E6/uL
same,HEMATOCRIT,[3],40.4%
same,HEMOGLOBIN,[3],14.86 G/DL
same,LEUKOCYTE COUNT,[3],12.04 x10E3/uL
same,LYMPHOCYTE,[3],85.2%
same,MEAN CORPUSCULAR HEMOGLOBIN,[3],22.46 pg
same,MEAN CORPUSCULAR HEMOGLOBIN CONCENTRATION,[3],36.82 G/DL
same,MEAN CORPUSCULAR VOLUME,[3],61 fL
same,MONOCYTE,[3],1.2%
same,NEUTROPHIL,[3],13.4%
same,NUCLEATED RED BLOOD CELLS,[3],0 /100WBC
same,PLATELET COUNT,[3],1437.6 x10E3/uL
same,ALANINE AMINOTRANSFERASE,[3],100 u/L
same,ALBUMIN,[3],4.46 G/DL
same,ALKALINE PHOSPHATASE,[3],485.6 u/L
same,ASPARTATE AMINOTRANSFERASE,[3],108.4 u/L
same,BLOOD UREA NITROGEN,[3],14.2 mg/dL
same,CARBON DIOXIDE,[3],29 mmol/L
same,CHLORIDE,[3],104 MEQ/L
same,CHOLESTEROL,[3],71.6 mg/dL
same,CREATINE PHOSPHOKINASE,[3],328.8 u/L
same,CREATININE,[3],0.17 mg/dL
same,GLUCOSE,[3],154 mg/dL
same,LACTATE DEHYDROGENASE,[3],199.2 u/L
same,LIPASE,[3],9.8 u/L
same,PHOSPHORUS,[3],13.5 mg/dL
same,POTASSIUM,[3],6.73 MEQ/L
same,SODIUM,[3],144.74 MEQ/L
same,TOTAL BILIRUBIN,[3],0.22 mg/dL
same,TOTAL PROTEIN,[3],6.42 G/DL
same,URIC ACID,[3],3.3 mg/dL
